For assay [1], the system named is human BARD1 protein (SEQ ID NO:1). As to the kind of experiment: in vitro cleavage of 35S-labeled human BARD1 by NaB-treated SW48 cell extracts, inhibition by protease inhibitors. It is filed as biochemical. How it is done:
(§1) The human BARD1 protein (SEQ ID NO:1), labeled with ^35S-methionine, was transcribed and translated in vitro using the TNT coupled reticulocytes lysate system kit (Promega). 1 μg of plasmid was used in a reaction medium for the transcription and the translation, containing 4 μl of ^35S-methionine (NEN). For the in vitro cleavage, 2 μl of transcription/translation products were incubated with apoptotic or nonapoptotic cell extracts prepared in a DIV buffer (20 mM HEPES. PH 7.5, 10 mM NaCl, 1.5 mM MgCl2, 0.1% SB14, 0.5 mM PMSF) at 37° C. for the period of time indicated. […] Inhibition of the cleavage was evaluated by adding caspase inhibitors or a proteasome inhibitor (lactacystine) (Calbiochem) or the calpain inhibitor I (ALLnL) (Chemicon).
To define the proteolytic activity responsible for the cleavage of hBARD1 (SEQ ID NO:1), various preparations of cell extracts from SW48 cells treated with NAB were tested. It appears that both the nuclear preparations and the mitochondrial preparations were capable of cleaving hBARD1 (SEQ ID NO:1). The supernatant at 13,000×g of the organelle preparation had no effect.

In the next assay the test system is caspases 3, 6 and 8. In words: caspase activity in extracts of NaB-treated SW48 cells (fluorogenic substrates). It is filed as cell-based, human. Particulars: during NaB treatment of SW48 cells; caspase 3 most active after 6 and 12 hours. How it is done:
For assaying the caspase activity, 10 μg of cell extracts were diluted in 5 μl of DIV buffer:
Acetyl-Asp-Glu-Val-Asp-7-amino-4-methylcoumarin (Ac-DEVD-AMC), acetyl-Val-Glu-Ile-Asp-7-amino-4-methylcoumarin (Ac-VEID-AMC) and […] (Bachem), substrates for caspases 3, 6 and 8, respectively, were added at a final concentration of 50 μM. The cleavage activity was controlled on Fluorolite 1000 (Dynatech laboratories).

Another assay relates to SW48 cells. In words: NaB treatment of SW48 cells: induction of BARD1 and calpastatin cleavage. The assay is classed as cell-based, human. Particulars: SW48 cells treated with NaB. On the procedure:
Apoptosis was induced by treatment with sodium butyrate (NaB). The cells at different stages of confluence were treated in complete medium at 37° C. and with 5 mM of NaB (Sigma) for various periods of time. The apoptotic bodies were purified as previously described (Gautier et al., 1999):
as §1
The SW48 cells were arrested in G0 by contact inhibition in 175 cm^2 flasks. After confluencing for 3 days, the cells were split 1:10 in 75 cm^2 flasks at a concentration of 3×10^6 cells per flask. 12, 20, 28, 36 and 44 hours after seeding, the cells were treated with 5 mM of NaB for 24 hours and collected. To determine the cell cycle distribution at each time, the content of each flask was subjected to trypsinization, washed three times in 10 ml of ice-cold PBS, and fixed with 1 ml of ice-cold 70% ethanol, added dropwise, for 16 hours at −20° C. The fixed cells were pelletted, resuspended in 500 μl of PC buffer (96% 0.2M Na2HPO4, 4% 15 0.1M citric acid, pH 7.8) and left at ambient temperature for 30 minutes. They were then washed and resuspended in 500 μl of propidium iodide in a staining solution (PBS, 0.12% Triton X-100, 0.12 mM EDTA, 100 μg/ml RNase A), incubated for 30 minutes at 37° C. and analyzed on a FACScan (flow cytometer) (Beckton Dickinson). […]

For another assay, the system named is PROb tumors. In words: vaccination of BDIX rats, then subcutaneous PROb tumor challenge. It is filed as in vivo. Conditions: three weekly intraplantar injections of 100 μg in complete Freund's adjuvant; PROb cells s.c. two weeks after final immunization; versus control protein (fucosyl transferase). How it is done:
Two groups of BDIX rats were given three weekly intraplantar injections of 100 μg of F1 fragment (amino acids 460-611) of BARD1 (SEQ ID NO:9) or of a controlled protein (fucosyl transferase) purified under the same conditions as the F1 fragment. The proteins were emulsified in 100 μl of complete Freund's adjuvant. Two weeks after the final immunization, the rat colon tumor cells (PROb, 50×10^3/rat) were injected subcutaneously and the volume of the PROb tumors was estimated.

Like-named read-outs stand apart in the source and are kept apart here. Non-standard residues stand in square brackets, D forms with d. Residues, ends and D or L forms follow the SMILES beside them. Nle = CCCC[C@H](N)C(=O)O

Turning to `CCCC[C@@H](C=O)NC(=O)[C@H](CC(C)C)NC(=O)[C@H](CC(C)C)NC(C)=O` [ALLnL, N-acetyl-leu-leu-norleucinal] (Ac-Leu-Leu-[Nle]-aldehyde), the “inhibition of the hydrolysis of hBARD1” value in assay [1] was “inhibited”; in assay [1] (dose-dependent manner), “strongly inhibited”.
For `O=C(O)CN(CCOCCOCCN(CC(=O)O)CC(=O)O)CC(=O)O` [EGTA] the same measures were “inhibited” and “strongly inhibited”.
As for `CCCC(=O)[O-].[Na+]` [NaB, sodium butyrate], the “activities of caspases 3, 6 and 8” value in the assay on caspases 3, 6 and 8 is given as “gradually increased”. Also, in the assay with SW48 cells, the “treatment time after which BARD1 cleavage was virtually complete” value was roughly 12 h, the “treatment time after which calpastatin was completely cleaved” value turned out to be 12 h and the “treatment time after which the p67 protein appeared” value came out at 4 h.
As to `CC(=O)N[C@@H](CSC(=O)[C@]1([C@@H](O)C(C)C)NC(=O)[C@H](C)[C@@H]1O)C(=O)O` [lactacystine], in assay [1] (even at concentrations of 100 μm), the “blocking of the proteolysis of hBARD1” value was “does not block”.
On to “benzyloxycarbonyl-Asp-Glu-Val-Asp-fluoromethylketone [Z-DEVD-frnk]”, for which the “inhibition of the hydrolysis of hBARD1” value in assay [1] is reported as “no effect”.
As for “benzyloxycarbonyl-Val-Ala-Asp-fluoromethylketone [ZVAD-fmk]”, in assay [1] (high concentration (100 μM)), the “inhibition of the hydrolysis of hBARD1” value is “slightly inhibited”.
“benzyloxycarbonyl-Val-Glu-Ile-Asp-fluoromethyl ketone [Z-VEID-fmk]”: the “inhibition of the hydrolysis of hBARD1” value in assay [1] is given as “no effect”.

B1: BARD1 fragment: F1 fragment (amino acids 460-611) of rat BARD1 with N-terminal 6xHis tag, expressed in E. coli (protein, listed as Rattus norvegicus)
chain: SHGHLKIVELLLQHNALVNTTGYHNDSPLHDAAKNGHIDIVKVLLSHGASRNAVNIFGERPVDYTDAENIRSLLLLPEKTDSFSTSQCSVQVNTGQRKSGPLVLIGSGLSSQQQKLLSKLETVLKAKKCAEFDNTVTHVIVPDEEAQSTLKC
modifications: N-terminal 6xHis tag
notes: F1 fragment (amino acids 460-611) of rat BARD1 with N-terminal 6xHis tag, expressed in E. coli
Regarding B1, the “PROb tumor growth (tumor volume)” value in the assay on PROb tumors was “slowing down of tumor growth”.

The values are drawn from patent publication US20100016228A1, “TRUNCATED BARD1 PROTEIN, AND ITS DIAGNOSTIC AND THERAPEUTIC USES” (Ayanda Biosystems SA, priority 2000, published 2010).
